According to patent US9802895B2, “Indole and benzimidazolecarboxamides as insecticides and acaricides” (BAYER CROPSCIENCE AKTIENGESELLSCHAFT, priority 2014, dated 2017):

How the values were obtained:
[1] = test system: L1 larvae of the Australian sheep blowfly (Lucilia cuprina); test: Lucilia cuprina test (LUCICU); assay type: in vivo; settings: 100 ppm, after 2 days
Protocol: Lucilia cuprina Test (LUCICU) Solvent: dimethyl sulphoxide To produce a suitable active compound formulation, 10 mg of active compound are mixed with 0.5 ml of dimethyl sulphoxide, and the concentrate is diluted with water to the desired concentration. About 20 L1 larvae of the Australian sheep blowfly (Lucilia cuprina) are transferred into a test vessel containing minced horsemeat and the active compound preparation of the desired concentration. After 2 days, the kill in % is determined 100% means that all the larvae have been killed; 0% means that none of the larvae have been killed.

[2] = test system: engorged adult female cattle ticks (Boophilus microplus); test: Boophilus microplus injection test (BOOPMI inj); assay type: in vivo; settings: assessed after 7 days
Protocol: Boophilus microplus Injection Test (BOOPMI inj) Solvent: dimethyl sulphoxide To produce a suitable active compound formulation, 10 mg of active compound are mixed with 0.5 ml of solvent and the concentrate is diluted with solvent to the desired concentration. 1 μl of the active compound solution is injected into the abdomen of 5 engorged adult female cattle ticks (Boophilus microplus). The animals are transferred into dishes and kept in a climate-controlled room. The efficacy is assessed after 7 days by laying of fertile eggs. Eggs which are not visibly fertile are stored in a climate-controlled cabinet until the larvae hatch after about 42 days. An efficacy of 100% means that none of the ticks has laid any fertile eggs; 0% means that all the eggs are fertile.

[3] = test system: mixed thrips population (Frankliniella occidentalis); test: Frankliniella occidentalis spray test (FRANOC); assay type: in vivo; settings: 7 dat
Protocol: Frankliniella occidentalis—Spray Test (FRANOC) Solvent: 7 parts by weight of dimethylformamide Emulsifier: alkylaryl polyglycol ether To produce a suitable active compound formulation, 1 part by weight of active compound is dissolved using the specified parts by weight of solvent and made up with water containing an emulsifier concentration of 1000 ppm until the desired concentration is attained. To produce further test concentrations, the preparation is diluted with emulsifier-containing water. If the addition of ammonium salts or/and penetrants is required, these are each added in a concentration of 1000 ppm to the formulation solution. Bush bean plants (Phaseolus vulgaris) are sprayed with an active compound preparation of the desired concentration. After drying, the treated plants are infected with a mixed thrips population (Frankliniella occidentalis). After the desired period of time, the plant-protective efficacy in % is determined. 100% means that no damage is evident; 0% means that the damage to the treated plant corresponds to that of the untreated control.

[4] = test system: caterpillars of the armyworm (Spodoptera frugiperda); test: Spodoptera frugiperda spray test (SPODFR); assay type: in vivo; settings: for efficacy: 100 g/ha, spray, after 7 days
Protocol: Spodoptera frugiperda—Spray Test (SPODFR) Solvent: 78.0 parts by weight of acetone • • 1.5 parts by weight of dimethylformamide Emulsifier: alkylaryl polyglycol ether To produce a suitable active compound formulation, 1 part by weight of active compound is dissolved using the specified parts by weight of solvent and made up with water containing an emulsifier concentration of 1000 ppm until the desired concentration is attained. To produce further test concentrations, the preparation is diluted with emulsifier-containing water. Leaf discs of maize (Zea mays) are sprayed with an active compound formulation of the desired concentration and, after drying, populated with caterpillars of the armyworm (Spodoptera frugiperda). After 7 days, the efficacy in % is determined 100% means that all the caterpillars have been killed; 0% means that no caterpillars have been killed. Spodoptera frugiperda—Spray Test (SPODFR) Solvent: 78.0 parts by weight of acetone • • 1.5 parts by weight of dimethylformamide Emulsifier: alkylaryl polyglycol ether To produce a suitable active compound formulation, 1 part by weight of active compound is dissolved using the specified parts by weight of solvent and made up with water containing an emulsifier concentration of 1000 ppm until the desired concentration is attained. To produce further test concentrations, the preparation is diluted with emulsifier-containing water. Leaf discs of maize (Zea mays) are sprayed with an active compound formulation of the desired concentration and, after drying, populated with caterpillars of the armyworm (Spodoptera frugiperda). After the desired period of time, the efficacy in % is determined. 100% means that all the caterpillars have been killed; 0% means that no caterpillars have been killed.

[5] = log P by HPLC (EEC directive 79/831 Annex V.A8); assay type: physicochemical; settings: HPLC, reversed-phase column (C18), 43° C., acidic range pH 2.7
Protocol: a) The determination of the M^+ by LC-MS in the acidic range is effected at pH 2.7, acetonitrile (contains 0.1% formic acid) and water as eluents; linear gradient from 10% acetonitrile to 95% acetonitrile, instrument: Agilent 1100 LC system, Agilent MSD system, HTS PAL. The log P values reported in the tables and Preparation Examples above were determined in accordance with EEC directive 79/831 Annex V.A8 by HPLC (High Performance Liquid Chromatography) using a reversed-phase column (C18). Temperature 43° C. The calibration is effected with unbranched alkan-2-ones (having 3 to 16 carbon atoms), for which the logP values are known.

[6] = test system: adult houseflies (Musca domestica); test: Musca domestica test (MUSCDO); assay type: in vivo; settings: 100 ppm, after 2 days
Protocol: Musca domestica Test (MUSCDO) Solvent: dimethyl sulphoxide To produce a suitable active compound formulation, 10 mg of active compound are mixed with 0.5 ml of dimethyl sulphoxide, and the concentrate is diluted with water to the desired concentration. Vessels containing a sponge treated with sugar solution and the active compound preparation of the desired concentration are populated with 10 adult houseflies (Musca domestica). After 2 days, the kill in % is determined. 100% means that all of the flies have been killed; 0% means that none of the flies have been killed.

[7] = test system: adult cat fleas (Ctenocephalides felis); test: Ctenocephalides felis oral test (CTECFE); assay type: in vivo; settings: 100 ppm, oral in cattle blood, after 2 days
Protocol: Ctenocephalides felis-Oral Test ([…]) Solvent: dimethyl sulphoxide To produce a suitable active compound formulation, 10 mg of active compound are mixed with 0.5 ml of dimethyl sulphoxide. Dilution with citrated cattle blood gives the desired concentration. About 20 unfed adult cat fleas (Ctenocephalides felis) are placed into a chamber which is closed at the top and bottom with gauze. A metal cylinder whose bottom end is closed with parafilm is placed onto the chamber. The cylinder contains the blood/active compound preparation, which can be imbibed by the fleas through the parafilm membrane. After 2 days, the kill in % is determined 100% means that all of the fleas have been killed; 0% means that none of the fleas have been killed.

[8] = test system: larvae of the mustard beetle (Phaedon cochleariae); test: Phaedon cochleariae spray test (PHAECO); assay type: in vivo; settings: 100 g/ha, after 7 days
Protocol: Phaedon cochleariae—Spray Test (PHAECO)
(§1) Solvent: 78.0 parts by weight of acetone • • 1.5 parts by weight of dimethylformamide
(§2) Emulsifier: alkylaryl polyglycol ether
(§3) To produce a suitable active compound formulation, 1 part by weight of active compound is dissolved using the specified parts by weight of solvent and made up with water containing an emulsifier concentration of 1000 ppm until the desired concentration is attained. To produce further test concentrations, the preparation is diluted with emulsifier-containing water.
After 7 days, the efficacy in % is determined. 100% means that all the beetle larvae have been killed; 0% means that no beetle larvae have been killed.

[9] = test system: greenhouse red spider mite (Tetranychus urticae); test: Tetranychus urticae spray test, OP-resistant (TETRUR); assay type: in vivo; settings: for efficacy: 100 g/ha, spray, after 6 days
Protocol: Tetranychus urticae—Spray Test, OP-Resistant (TETRUR)
as §1, §2, §3
Discs of bean leaves (Phaseolus vulgaris) infested by all stages of the greenhouse red spider mite (Tetranychus urticae) are sprayed with an active compound formulation of the desired concentration.
After 6 days, the efficacy in % is determined 100% means that all the spider mites have been killed; 0% means that none of the spider mites have been killed.
Tetranychus urticae—Spray Test; OP-Resistant (TETRUR)
After the desired period of time, the efficacy in % is determined 100% means that all the spider mites have been killed; 0% means that none of the spider mites have been killed.

[10] = test system: L2 larvae of the banded cucumber beetle (Diabrotica balteata); test: Diabrotica balteata drench test (DIABBA); assay type: in vivo; settings: 8 dat
Protocol: Diabrotica balteata—Drench Test (DIABBA) Solvent: 7 parts by weight of dimethylformamide Emulsifier: 2 parts by weight of alkylaryl polyglycol ether To produce a suitable active compound formulation, 1 part by weight of active compound is mixed with the specified amounts of solvent and emulsifier, and the concentrate is diluted with water to the desired concentration, it being necessary to include the volume of soil which is drenched in the calculation. It should be ensured that a concentration of 40 ppm of emulsifier in the soil is not exceeded. To produce further test concentrations, water is used for dilution. […] After one day, 25 L2 larvae of the banded cucumber beetle (Diabrotica balteata) are added. After 8 days, the efficacy in % is determined 100% means that all 5 plants have germinated and grown; 0% means that none of the plants has emerged.

[11] = test system: green peach aphid (Myzus persicae); test: Myzus persicae spray test; assay type: in vivo; settings: 100 g/ha, after 6 days
Protocol: Myzus persicae—Spray Test Solvent: 78 parts by weight of acetone • • 1.5 parts by weight of dimethylformamide Emulsifier: alkylaryl polyglycol ether To produce a suitable appropriate active compound formulation, 1 part by weight of active compound is dissolved using the specified parts by weight of solvent and made up with water containing an emulsifier concentration of 1000 ppm until the desired concentration is attained. To produce further test concentrations, the preparation is diluted with emulsifier-containing water. Discs of Chinese cabbage leaves (Brassica pekinensis) infested by all stages of the green peach aphid (Myzus persicae) are sprayed with an active compound formulation of the desired concentration. After 6 days, the efficacy in % is determined. 100% means that all the aphids have been killed; 0% means that none of the aphids have been killed.

Structure (SMILES) | efficacy (kill in %) [1] [%] | efficacy (laying of fertile eggs) [2] [%] | efficacy [4] [%] | log P [5] | efficacy (kill in %) [6] [%] | efficacy (kill in %) [7] [%] | efficacy [8] [%] | efficacy [9] [%] | efficacy [11] [%] | further results
Cn1c(C(=O)NC(c2ccc(Cl)c(C(F)(F)F)c2)C(F)(F)F)cc2cc(C(=O)NC3(C(N)=S)CC3)c(Cl)cc21 (stereo not drawn) [I-16] | 100 | 100 | 100 | 3.70 | 100 | 100 | 100 | 100 |  | % efficacy (plant-protective) ([3]; 0.8 ppm): 90%; % efficacy (plant-protective) ([3]; 4 ppm): 90%; % efficacy ([10]; 4 ppm): 50%; % efficacy ([10]; 20 ppm): 100%
Cn1c(C(=O)NC(c2cc(Cl)c(Cl)c(Cl)c2)C(F)(F)F)cc2cc(C(=O)NC3(C(N)=S)CC3)c(Cl)cc21 (stereo not drawn) [I-20] | 100 | 100 | 100 | 4.07 | 100 | 100 | 100 | 100 | 90 | % efficacy ([4]; SPODFR, 0.8 g/ha, 7 dat): 100%; % efficacy ([4]; SPODFR, 4 g/ha, 7 dat): 100%
CCn1c(C(=O)NC(c2cc(Cl)c(Cl)c(F)c2F)C(F)(F)F)cc2cc(C(=O)NC3(C(N)=S)CC3)c(Cl)cc21 (stereo not drawn) [I-29] | 100 | 100 | 100 | 4.27 | 100 | 100 | 100 | 90 | 100 | 
CCn1c(C(=O)NC(c2ccc(F)c(C(F)(F)F)c2)C(F)F)cc2cc(C(=O)NC3(C(N)=S)CC3)c(Cl)cc21 (stereo not drawn) [I-32] | 100 | 100 | 100 | 3.41 |  | 100 | 100 | 100 | 90 | 
CCn1c(C(=O)NC(c2cccc(C(F)(F)F)c2)C(F)(F)F)cc2cc(C(=O)NC3(C(N)=S)CC3)c(Cl)cc21 (stereo not drawn) [reference compound] |  |  |  |  |  |  |  |  |  | Emax at 0.8 ppm ([3]; Thrips, 168 h, 0.8 ppm, read-out: % efficacy (plant-protective)): 60%; Emax at 4 ppm ([3]; Thrips, 168 h, 4 ppm, read-out: % efficacy (plant-protective)): 98%; Emax at 0.8 g/ha ([4]; Spodoptera frugiperda, 168 h, SPODFR, 0.8 g/ha, 7 dat, read-out: % efficacy): 33%; % efficacy (mortality) at a single application rate at 4 g/ha ([4]; Spodoptera frugiperda, 168 h, SPODFR, 4 g/ha, 7 dat): 100%; Emax at 4 g/ha ([9]; Tetranychus urticae, 144 h, TETRUR, 4 g/ha, 6 dat, read-out: % efficacy): 70%; Emax at 20 g/ha ([9]; Tetranychus urticae, 144 h, TETRUR, 20 g/ha, 6 dat, read-out: % efficacy): 100%; Emax at 4 ppm ([10]; Diabrotica balteata, soil, 192 h, 4 ppm, read-out: % efficacy): 70%; Emax at 20 ppm ([10]; Diabrotica balteata, soil, 192 h, 20 ppm, read-out: % efficacy): 60%
